Assay results as given in patent US5760072A, “Paclitaxel prodrugs, method for preparation as well as their use in selective chemotherapy” (Pharmachemie B.V., priority 1995, dated 1998).
Counter-ions that a name gives are not always drawn.

Assays:
OVCAR-3 cells [1] = experiment: In vitro cytotoxicity (anti-proliferative effect) without β-glucuronidase, sulforhodamine B protein dye stain; type: cell-based; details: for ratio IC50 prodrug/IC50 paclitaxel: OVCAR-3, without β-glucuronidase; for cytotoxicity compared with parent drug paclitaxel: in words
Description: (§1) The anti-proliferative effects of paclitaxel, and the prodrugs 1, 2a and 2b on OVCAR-3 cells were determined by measuring the cell growth with a protein dye stain (H. J. Haisma et al. Cell Biophysics 1994, 24/25, 185-192). Cells were seeded in 96-well tissue culture plates (5000 cells/well) and 24 h later (pro)drugs 1, 2a, 2b or 3 were added with or without excess human β-glucuronidase. After 72 hours the cells were fixed with 25% trichloroacetic acid, stained with 0.4% sulforhodamine B, washed with 1% acetic acid and air-dried. The bound dye was then solubilized with 10 mM Tris and the absorbance read at 492 nm. The antiproliferative effects were expressed as IC50 values, which are the (pro)drug concentrations that gave 50% growth inhibition when compared to control cell growth.

human β-glucuronidase = target: T1, human β-glucuronidase (Homo sapiens, UniProt P08236); experiment: Enzyme catalyzed hydrolysis of prodrug by human β-glucuronidase, HPLC; type: biochemical; details: for ratio prodrug/paclitaxel: 37° C., pH=6.8, HPLC peak areas; for intermediates (spacer attached to paclitaxel, compounds 5 and 7b) during enzyme catalyzed hydrolysis / enzymatic hydrolysis rate / paclitaxel found in experiment without human β-glucuronidase: in words; for enzymatic hydrolysis rate: appropriate enzyme; for paclitaxel found in experiment without human β-glucuronidase: no enzyme, PBS pH=6.8, 37° C., up to 180 min; for half life of hydrolysis by β-glucuronidase: prodrug 100 μM, enzyme 10 μg mL^-1
T1 construct: lysosomal homotetramer
T1 sequence (P08236 23-651): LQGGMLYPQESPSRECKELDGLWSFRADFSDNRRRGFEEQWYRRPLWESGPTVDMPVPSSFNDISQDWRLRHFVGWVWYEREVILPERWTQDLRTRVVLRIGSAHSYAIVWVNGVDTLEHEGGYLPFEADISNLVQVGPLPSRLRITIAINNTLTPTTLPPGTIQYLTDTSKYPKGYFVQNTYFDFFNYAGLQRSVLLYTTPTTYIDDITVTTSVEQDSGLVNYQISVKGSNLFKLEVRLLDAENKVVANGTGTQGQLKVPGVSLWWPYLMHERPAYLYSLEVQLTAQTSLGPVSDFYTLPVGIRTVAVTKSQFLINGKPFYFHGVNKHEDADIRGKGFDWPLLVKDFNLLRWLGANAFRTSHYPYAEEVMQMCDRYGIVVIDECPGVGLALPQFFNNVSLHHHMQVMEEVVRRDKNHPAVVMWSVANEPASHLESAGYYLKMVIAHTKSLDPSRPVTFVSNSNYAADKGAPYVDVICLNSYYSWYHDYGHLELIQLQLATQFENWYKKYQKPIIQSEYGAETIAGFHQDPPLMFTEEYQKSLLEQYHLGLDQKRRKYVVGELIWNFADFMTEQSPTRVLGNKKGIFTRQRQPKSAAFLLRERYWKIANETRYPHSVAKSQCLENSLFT
Description: To 140 μL PBS buffer (pH=6.8) was added 20 μL of a 1 mM solution of prodrug 1 in PBS buffer (pH=6.8) and 20 μL of 1% bovine serum albumin also in PBS buffer (pH=6.8). After incubation of the mixture for 10 min. at 37° C. 20 μL of a solution of 0.1 mg mL^-1 human β-glucuronidase (H. J. Haisma, Hybridoma, in press) was added. Directly after the addition of the enzyme to the reaction mixture an aliquot of 10 μL was taken and diluted with 90 μL cold acetonitrile (-20° C.) in order to stop the enzyme reaction. The reaction mixture was incubated for 3 hr at 37° C. and samples were taken at 15, 30, 45, 60, 90, 120 and 180 min. All samples were quenched by dilution with cold acetonitrile (-20° C.). […] In the later experiment also samples of 10 μL were taken at 0, 15, 30, 45, 60, 90, 120 and 180 min and were also diluted with cold acetonitrile (-20° C.). The samples of both experiments were analyzed by HPLC (C^18 reverse phase column, eluent: gradient of 10% acetonitrile in water to 90% acetonitrile in water, detection at 226 nm). The ratio of prodrug 1 to paclitaxel as shown in table 1 is determined by measuring the peak areas of the appropriate signals. […] All experiments were carried out in duplo.
20 μL of 1 mM solution of prodrug 2b in PBS buffer (pH=6.8) and 20 μL 1% bovine serum albumin also in PBS buffer (pH=6.8) was added to 140 μL PBS buffer (pH=6.8). Subsequently, the mixture was incubated for 10 min. at 37° C. whereafter 20 μL of a solution of 0.1 mg mL^-1 human β-glucuronidase (H. J. Haisma, Hybridoma, in press) was added and the reaction mixture was incubated at 37° C. Samples were taken and quenched at 0, 15, 30, 45, 60, 90, 120 and 180 min as described above for the enzyme assay of prodrug 1. In order to determine that the hydrolysis was caused by β-glucuronidase, another experiment was carried out without addition of β-glucuronidase as described above in example 7. The samples were analyzed as described for example 7 (vide supra). The ratios presented in table 2, are based on peak areas of the appropriate signals. […] All experiment were carried out in duplo.

Solubility in water = type: physicochemical; details: for solubility in water compared with parent drug paclitaxel: in words; for solubility: water, read-out: Concentrations reached in water
Description: Concentrations of 10 mM in water and higher were reached whereas the solubility of paclitaxel is lower as […] in water (K. C. Nicolaou et al., Nature, 1993, 364, 464-466).

OVCAR-3 cells [2] = experiment: In vitro cytotoxicity (anti-proliferative effect) with excess human β-glucuronidase, sulforhodamine B protein dye stain; type: cell-based; details: OVCAR-3, with β-glucuronidase
Description: as §1

[3] = Stability assay in PBS buffer pH 6.8, 37° C., HPLC; type: physicochemical; details: for ratio of prodrug/paclitaxel: PBS pH=6.8, 37° C., HPLC peak areas; for stability in PBS buffer: in words, PBS pH=6.8
Description: The prodrugs in examples 1 and 2b were all stable in PBS buffer (PBS buffer=NaCl (8 g/L), KCl (0.2 g/L), Na2 HPO4 (1.15 g/L), KH2 PO4 (0.2 g/L), pH=6.8, see example 4 and 5).
To 3.0 mL PBS buffer, pH=6.8, was added 0.37 mg of prodrug 2b (0.30 μmol). The mixture was placed in a water bath of 37° C. […] The ratios are based on peak areas.
In 1.1 mL PBS buffer, pH=6.8, was dissolved 0.13 mg of prodrug 2a (0.11 μmol) and placed in a water bath of 37° C. […] The ratios are based on peak areas.

[4] = K. C. Nicolaou et al., Nature, 1993, 364, 464-466; cited from earlier work

Structure (SMILES) | ratio IC50 prodrug/IC50 paclitaxel (OVCAR-3 cells [1]) | cytotoxicity compared with parent drug paclitaxel (OVCAR-3 cells [1]) | ratio prodrug/paclitaxel (human β-glucuronidase; 0 min) | ratio prodrug/paclitaxel (human β-glucuronidase; 15 min) | ratio prodrug/paclitaxel (human β-glucuronidase; 30 min) | ratio prodrug/paclitaxel (human β-glucuronidase; 45 min) | ratio prodrug/paclitaxel (human β-glucuronidase; 60 min) | ratio prodrug/paclitaxel (human β-glucuronidase; 90 min) | ratio prodrug/paclitaxel (human β-glucuronidase; 120 min) | ratio prodrug/paclitaxel (human β-glucuronidase; 180 min) | intermediates (spacer attached to paclitaxel, compounds 5 and 7b) during enzyme catalyzed hydrolysis (human β-glucuronidase) | enzymatic hydrolysis rate (human β-glucuronidase) | paclitaxel found in experiment without human β-glucuronidase (human β-glucuronidase) | half life of hydrolysis by β-glucuronidase (human β-glucuronidase) | solubility in water compared with parent drug paclitaxel (Solubility in water) | solubility (Solubility in water) [mM] | ratio IC50 activated prodrug with β-glucronidase/IC50 paclitaxel (OVCAR-3 cells [2]) | ratio of prodrug/paclitaxel ([3]; 48 hr) | stability in PBS buffer [3] | further results
CC(=O)O[C@H]1C(=O)[C@@]2(C)[C@H]([C@H](OC(=O)c3ccccc3)[C@]3(O)C[C@H](OC(=O)[C@H](OC(=O)CC(C)(C)CNC(=O)O[C@@H]4O[C@H](C(=O)O)[C@@H](O)[C@H](O)[C@H]4O)[C@@H](NC(=O)c4ccccc4)c4ccccc4)C(C)=C1C3(C)C)[C@]1(OC(C)=O)CO[C@@H]1C[C@@H]2O [Prodrug 1, N-[paclitaxel-2'-O-3,3-dimethyl butanoate]-O-[β-glucuronyl] carbamate sodium salt] | 90 | less cytotoxic as the parent drug | 99/1 | 95/5 | 93/7 | 87/13 | 78/22 | 61/39 | 43/57 | 33/67 | no intermediates | quite fast hydrolyzing rates | no paclitaxel was found | about 2 hr | far more better soluble in water as the parent drug paclitaxel | ≥ 10 | 3 | 92/8 | stable | –
CC(=O)O[C@H]1C(=O)[C@@]2(C)[C@H]([C@H](OC(=O)c3ccccc3)[C@]3(O)C[C@H](OC(=O)[C@H](OC(=O)Cc4ccccc4NC(=O)O[C@@H]4O[C@H](C(=O)O)[C@@H](O)[C@H](O)[C@H]4O)[C@@H](NC(=O)c4ccccc4)c4ccccc4)C(C)=C1C3(C)C)[C@]1(OC(C)=O)CO[C@@H]1C[C@@H]2O [Prodrug 2a, N-[paclitaxel-2'-O-(2-amino) phenylacetate]-O-[β-glucuronyl] carbamate sodium salt] | 1 | about as cytotoxic as paclitaxel | – | – | – | – | – | – | – | – | – | – | – | – | far more better soluble in water as the parent drug paclitaxel | ≥ 10 | 1 | – | not stable | ratio of prodrug/paclitaxel ([3]; 3 hr): 55/45; ratio of prodrug/paclitaxel ([3]; 22 hr): 1/99; half-life ([3]; pbs buffer, pH 6.8, read-out: half time of decomposition to paclitaxel (converted)): 3 h
CC(=O)O[C@H]1C(=O)[C@@]2(C)[C@H]([C@H](OC(=O)c3ccccc3)[C@]3(O)C[C@H](OC(=O)[C@H](OC(=O)CCc4ccccc4NC(=O)O[C@@H]4O[C@H](C(=O)O)[C@@H](O)[C@H](O)[C@H]4O)[C@@H](NC(=O)c4ccccc4)c4ccccc4)C(C)=C1C3(C)C)[C@]1(OC(C)=O)CO[C@@H]1C[C@@H]2O [Prodrug 2b, N-[paclitaxel-2'-O-(2-amino)phenylpropionate]-O-[β-glucuronyl] carbamate sodium salt] | 122 | less cytotoxic as the parent drug | 99/1 | 87/13 | 74/26 | 55/45 | 41/59 | 24/76 | 20/80 | 15/85 | no intermediates | quite fast hydrolyzing rates | no paclitaxel was found | about 45 min | far more better soluble in water as the parent drug paclitaxel | ≥ 10 | 5 | 92/8 | stable | ratio of prodrug/paclitaxel ([3]; 66 hr): 89/11
CC(=O)O[C@H]1C(=O)[C@@]2(C)[C@H]([C@H](OC(=O)c3ccccc3)[C@]3(O)C[C@H](OC(=O)[C@H](O)[C@@H](NC(=O)c4ccccc4)c4ccccc4)C(C)=C1C3(C)C)[C@]1(OC(C)=O)CO[C@@H]1C[C@@H]2O [paclitaxel] | – | – | – | – | – | – | – | – | – | – | – | – | – | – | – | – | – | – | – | solubility in water [4]: < 5 nM
